According to patent publication US9101785B2, “Use of 2,3-dihydroxypropyl dodecanoate for treating seborrhoea” (PIERRE FABRE DERMO-COSMETIQUE, priority 2009, dated 2015):

Test system: 5-α reductase enzyme
Experiment: Inhibition of 5-α reductase activity: conversion of [4-14C]testosterone to DHT by normal human dermal fibroblasts (NHDF)
Type: cell-based

SMILES | 5-α reductase enzyme activity (reduced to) (75 μM test compound, 24 h pre-incubation then 24 h with radiolabelled testosterone, DHT quantified by TLC/phosphorImager) [%] | inhibition of 5-α reductase activity (in words) (dose-effect observed, FIG. 1) | testosterone metabolisation to DHT / 5-α reductase activity (in words) (positive control tested at 10 μM)
CCCCCCCCCCCC(=O)OCC(O)CO (stereo not drawn) [2,3-dihydroxypropyl dodecanoate] | 66 | inhibition of 5-α reductase activity is also observed | 
CC(C)(C)NC(=O)[C@H]1CC[C@H]2[C@@H]3CC[C@H]4NC(=O)C=C[C@]4(C)[C@H]3CC[C@]12C [finasteride, reference compound] |  |  | lowers testosterone metabolisation to DHT significantly
